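Protocol summary: plate cells (96-well), add compound at 5 concentrations, incubate 48 h, interpolate endpoints linearly. Here, GI50 denotes the concentration required for 50% inhibition of growth. The concentration for full growth arrest is given as TGI.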
Columns and labels:
Experiment in all cases: inhibition of tumour cell growth, NCI panel, 48 h
[1] = system: SNB-19 CNS
[2] = system: HOP-92 NSCLC
[3] = system: NCI/ADR-RES ovarian
[4] = system: NCI-H460 lung
[5] = system: BT-549 breast
[6] = system: NCI-H226 lung
[7] = system: SNB-75 CNS
[8] = system: SN12C renal
[9] = system: KM12 colon
[10] = system: IGROV1 ovarian
[11] = system: SF-539 CNS
[12] = system: ACHN renal
[13] = system: SK-MEL-28 melanoma
[14] = system: MDA-MB-231 breast
[15] = system: MCF7 breast
[16] = system: OVCAR-4 ovarian
[17] = system: 786-0 renal
[18] = system: PC-3 prostate
[19] = system: UACC-62 melanoma
[20] = system: SK-OV-3 ovarian
[21] = system: T-47D breast
[22] = system: A549 NSCLC
[23] = system: M14 melanoma
[24] = system: HOP-62 NSCLC
[25] = system: SK-MEL-5 melanoma
[26] = system: HCC-2998 colon
[27] = system: SK-MEL-2 melanoma
[28] = system: NCI-H522 lung
[29] = system: HT29 colon
[30] = system: OVCAR-8 ovarian
[31] = system: RXF 393 renal
[32] = system: HCT-116 colon
[33] = system: UACC-257 melanoma
[34] = system: OVCAR-3 ovarian
[35] = system: MOLT-4 leukemia
[36] = system: CCRF-CEM leukemia
[37] = system: K-562 leukemia
[38] = system: CAKI-1 renal
[39] = system: SF-295 CNS
[40] = system: TK-10 renal
[41] = system: MDA-MB-435
[42] = system: A498 renal
[43] = system: HS 578T breast
[44] = system: UO-31 renal
[45] = system: MALME-3M melanoma
[46] = system: SR leukemia
[47] = system: OVCAR-5 ovarian
[48] = system: LOX IMVI melanoma
[49] = system: SF-268 CNS
[50] = system: HCT-15 colon
[51] = system: SW-620 colon
[52] = system: DU-145 prostate
[53] = system: HL-60(TB) leukemia
[54] = system: U251 CNS
[55] = system: EKVX NSCLC
[56] = system: RPMI-8226 leukemia
[57] = system: COLO 205 colon
[58] = system: NCI-H23 lung

SMILES: [Cl][Ru].c1ccc(-c2cccc(-c3ccccn3)n2)nc1.c1ccc(-c2ccnc3c2ccc2c(-c4ccccc4)ccnc23)cc1
- GI50 [1]: 3.33 µM
- TGI [1]: 21.7 µM
- GI50 [2]: 1.09 µM
- TGI [2]: 3.64 µM
- GI50 [3]: 10 µM
- TGI [3]: > 100 µM
- GI50 [4]: 3.75 µM
- TGI [4]: > 100 µM
- GI50 [5]: 2.26 µM
- TGI [5]: 6.46 µM
- GI50 [6]: 4.66 µM
- TGI [6]: 25.7 µM
- GI50 [7]: 2.37 µM
- TGI [7]: 9.73 µM
- GI50 [8]: 2.87 µM
- TGI [8]: 10.8 µM
- GI50 [9]: 3.04 µM
- TGI [9]: > 100 µM
- GI50 [10]: 2.93 µM
- TGI [10]: 20.7 µM
- GI50 [11]: 2.93 µM
- TGI [11]: 19.9 µM
- GI50 [12]: 21.2 µM
- TGI [12]: > 100 µM
- GI50 [13]: 3.01 µM
- TGI [13]: 18 µM
- GI50 [14]: 3 µM
- TGI [14]: 12.5 µM
- GI50 [15]: 2.41 µM
- TGI [15]: 13.4 µM
- GI50 [16]: 3.13 µM
- TGI [16]: 26.7 µM
- GI50 [17]: 13.2 µM
- TGI [17]: 62.7 µM
- GI50 [18]: 2.63 µM
- TGI [18]: 10.6 µM
- GI50 [19]: 1.97 µM
- TGI [19]: 5.53 µM
- GI50 [20]: 2.3 µM
- TGI [20]: 7 µM
- GI50 [21]: 2.32 µM
- TGI [21]: 8.35 µM
- GI50 [22]: 4.06 µM
- TGI [22]: 75.4 µM
- GI50 [23]: 4.82 µM
- TGI [23]: 34.3 µM
- GI50 [24]: 4.11 µM
- TGI [24]: 27.9 µM
- GI50 [25]: 6.55 µM
- TGI [25]: 44.4 µM
- TGI [26]: 20.1 µM
- GI50 [27]: 1.96 µM
- TGI [27]: 5.13 µM
- GI50 [28]: 2.12 µM
- TGI [28]: 6.75 µM
- GI50 [29]: 3.08 µM
- TGI [29]: 12 µM
- GI50 [30]: 5.35 µM
- TGI [30]: 59 µM
- GI50 [31]: 3.43 µM
- TGI [31]: 19 µM
- GI50 [32]: 3.16 µM
- TGI [32]: > 100 µM
- GI50 [33]: 2.7 µM
- TGI [33]: 14.2 µM
- GI50 [34]: 3.36 µM
- TGI [34]: > 100 µM
- GI50 [35]: 3.51 µM
- TGI [35]: 24.5 µM
- GI50 [36]: 4.5 µM
- TGI [36]: > 100 µM
- GI50 [37]: 1.67 µM
- TGI [37]: > 100 µM
- GI50 [38]: 13.8 µM
- TGI [38]: 36.6 µM
- GI50 [39]: 13.8 µM
- TGI [39]: 56.7 µM
- GI50 [40]: 11.8 µM
- TGI [40]: 37.3 µM
- GI50 [41]: 2.77 µM
- TGI [41]: 11 µM
- GI50 [42]: 15.1 µM
- TGI [42]: 46.6 µM
- GI50 [43]: 2.6 µM
- TGI [43]: 8.63 µM
- GI50 [44]: 6.31 µM
- TGI [44]: > 100 µM
- GI50 [45]: 2.42 µM
- TGI [45]: 7.52 µM
- GI50 [46]: 2.65 µM
- TGI [46]: 17.9 µM
- GI50 [47]: 4.01 µM
- TGI [47]: 19.5 µM
- GI50 [48]: 3.04 µM
- TGI [48]: > 100 µM
- GI50 [49]: 4.17 µM
- TGI [49]: > 100 µM
- GI50 [50]: 22.4 µM
- TGI [50]: > 100 µM
- GI50 [51]: 4.14 µM
- TGI [51]: 80.5 µM
- GI50 [52]: 4.84 µM
- TGI [52]: > 100 µM
- GI50 [53]: 1.62 µM
- TGI [53]: 4.03 µM
- GI50 [54]: 2.69 µM
- TGI [54]: > 100 µM
- GI50 [55]: 3.22 µM
- TGI [55]: 23.3 µM

SMILES: CC(C)=CCc1c2c(c(O)c3c1O[C@]14C(=C[C@@H]5C[C@H]1C(C)(C)O[C@@]4(C/C=C(/C)C(=O)O)C5=O)C3=O)CC(O)C(C)(C)O2 (stereo partly drawn)
- GI50 [1]: 17.7 µM
- TGI [1]: 40.4 µM
- GI50 [2]: 22.1 µM
- TGI [2]: 48.9 µM
- GI50 [3]: 30.9 µM
- TGI [3]: > 100 µM
- GI50 [4]: 16.7 µM
- TGI [4]: 39.6 µM
- GI50 [5]: 12.4 µM
- TGI [5]: 26.4 µM
- GI50 [6]: 23.8 µM
- TGI [6]: 72.7 µM
- GI50 [7]: 21.3 µM
- TGI [7]: 64.1 µM
- GI50 [8]: 18.9 µM
- TGI [8]: 51 µM
- GI50 [9]: 18.6 µM
- TGI [9]: 39.6 µM
- GI50 [10]: 20.3 µM
- TGI [10]: 64.1 µM
- GI50 [11]: 20.7 µM
- TGI [11]: 46.5 µM
- GI50 [12]: 27.7 µM
- TGI [12]: 85.7 µM
- GI50 [13]: 19.7 µM
- TGI [13]: 47.6 µM
- GI50 [14]: 26.5 µM
- TGI [14]: 92.2 µM
- GI50 [15]: 9.1 µM
- TGI [15]: 52.4 µM
- GI50 [56]: 10.1 µM
- TGI [56]: 53.6 µM
- GI50 [16]: 24.4 µM
- TGI [16]: 86.8 µM
- GI50 [17]: 19.7 µM
- TGI [17]: 38 µM
- GI50 [18]: 19.8 µM
- TGI [18]: 49.1 µM
- GI50 [19]: 15.5 µM
- TGI [19]: 34.8 µM
- GI50 [20]: 40.6 µM
- TGI [20]: > 100 µM
- GI50 [21]: 19 µM
- TGI [21]: 58.8 µM
- GI50 [22]: 31 µM
- TGI [22]: 78.1 µM
- GI50 [23]: 14.7 µM
- TGI [23]: 34.7 µM
- GI50 [24]: 20.6 µM
- TGI [24]: 42.5 µM
- GI50 [25]: 15 µM
- TGI [25]: 30.3 µM
- GI50 [26]: 17.7 µM
- TGI [26]: 32.9 µM
- GI50 [27]: 16.6 µM
- TGI [27]: 34.7 µM
- GI50 [28]: 14.9 µM
- TGI [28]: 28.4 µM
- GI50 [29]: 22 µM
- TGI [29]: 62.4 µM
- GI50 [30]: 18 µM
- TGI [30]: 45.1 µM
- GI50 [57]: 20.2 µM
- TGI [57]: 43.4 µM
- GI50 [31]: 19 µM
- TGI [31]: 38.2 µM
- GI50 [32]: 13.2 µM
- TGI [32]: 26.7 µM
- GI50 [33]: 19.4 µM
- TGI [33]: 43.8 µM
- GI50 [34]: 14.5 µM
- TGI [34]: 28 µM
- GI50 [35]: 17.3 µM
- TGI [35]: 65.1 µM
- GI50 [36]: 5.76 µM
- TGI [36]: 40.9 µM
- GI50 [37]: 11.6 µM
- TGI [37]: > 100 µM
- GI50 [58]: 17.7 µM
- TGI [58]: 48.4 µM
- GI50 [38]: 19.9 µM
- TGI [38]: 57 µM
- GI50 [39]: 27.9 µM
- TGI [39]: 87 µM
- GI50 [40]: 23.8 µM
- TGI [40]: 41.1 µM
- GI50 [41]: 18.9 µM
- TGI [41]: 51.8 µM
- GI50 [43]: 14.1 µM
- TGI [43]: 86 µM
- GI50 [44]: 14.8 µM
- TGI [44]: 32.7 µM
- GI50 [45]: 21.9 µM
- TGI [45]: 52.5 µM
- GI50 [46]: 7.8 µM
- TGI [46]: > 100 µM
- GI50 [47]: 28.6 µM
- TGI [47]: 74 µM
- GI50 [48]: 11.2 µM
- TGI [48]: 25.2 µM
- GI50 [49]: 14.7 µM
- TGI [49]: 34.5 µM
- GI50 [50]: 22.6 µM
- TGI [50]: > 100 µM
- GI50 [51]: 13.2 µM
- TGI [51]: 33.2 µM
- GI50 [52]: 20.8 µM
- TGI [52]: 48.1 µM
- GI50 [53]: 27.9 µM
- TGI [53]: 68 µM
- GI50 [54]: 15 µM
- TGI [54]: 30.1 µM
- GI50 [55]: 21.6 µM
- TGI [55]: 69.8 µM

From PubChem BioAssay (NCI)
